Data from patent US11427567B2, “Imidazolyl pyrimidinylamine compounds as CDK2 inhibitors” (Incyte Corporation, priority 2019, dated 2022).

biological target: CDK2/Cyclin E1 (Homo sapiens (Human), UniProt P24941); assay: CDK2/Cyclin E1 HTRF enzyme activity assay (Example A); type: biochemical; settings: 1 mM ATP
Procedure: Assays were conducted in white 384-well polystyrene plates in a final reaction volume of 8 μL. […] HTRF signals were read after 1 hour at room temperature on a PHERAstar FS plate reader (BMG Labtech). Data was analyzed with IDBS XLFit and GraphPad Prism 5.0 software using a three or four parameter dose response curve to determine IC50 for each compound.

IC50, ≤ 50 nM:
CNCCN(C)c1ccc(-n2cnc(-c3nc(NC4CCN(S(C)(=O)=O)CC4)ncc3C(F)(F)F)c2)c(C#N)c1 [Example 431, 5-(Methyl(2-(methylamino)ethyl)amino)-2-(4-(2-((1-(methylsulfonyl)piperidin-4-yl)amino)-5-(trifluoromethyl)pyrimidin-4-yl)-1H-imidazol-1-yl)benzonitrile]
CS(=O)(=O)N1CCC(Nc2ncc(C(F)(F)F)c(-c3cn(-c4cccc(CN5CC(O)C5)c4Cl)cn3)n2)CC1 [Example 82, 1-(2-Chloro-3-(4-(2-((1-(methylsulfonyl)piperidin-4-yl)amino)-5-(trifluoromethyl)pyrimidin-4-yl)-1H-imidazol-1-yl)benzyl)azetidin-3-ol]
CS(=O)(=O)N1CCC(Nc2ncc(C(F)(F)F)c(-c3cn(-c4ccc(CNCC(F)(F)F)cc4Cl)cn3)n2)CC1 [Example 188, 4-(1-(2-Chloro-4-(((2,2,2-trifluoroethyl)-amino)methyl)phenyl)-1H-imidazol-4-yl)-N-(1-(methylsulfonyl)-piperidin-4-yl)-5-(trifluoromethyl)-pyrimidin-2-amine]
Cc1c(C#N)cccc1-n1cc(-c2nc(N[C@H]3CCN(S(C)(=O)=O)C[C@H]3F)ncc2C(F)(F)F)nc1C [Example 306, 3-(4-(2-(((3R,4S)-3-Fluoro-1-(methylsulfonyl)piperidin-4-yl)amino)-5-(trifluoromethyl)pyrimidin-4-yl)-2-methyl-1H-imidazol-1-yl)-2-methylbenzonitrile]
O=S(=O)(C1CC1)N1CC[C@H](Nc2ncc(C(F)(F)F)c(-c3cn(CC(F)F)cn3)n2)[C@H](F)C1 [Example 329, N-((3R,4S)-1-(Cyclopropylsulfonyl)-3-fluoropiperidin-4-yl)-4-(1-(2,2-difluoroethyl)-1H-imidazol-4-yl)-5-(trifluoromethyl)pyrimidin-2-amine]
CNCc1cccc(-n2cnc(-c3nc(NC4CCN(S(C)(=O)=O)CC4)ncc3C(F)(F)F)c2)c1C(F)(F)F [Example 378, 4-(1-(3-((Methylamino)methyl)-2-(trifluoromethyl)phenyl)-1H-imidazol-4-yl)-N-(1-(methylsulfonyl)piperidin-4-yl)-5-(trifluoromethyl)pyrimidin-2-amine]
CS(=O)(=O)N1CCC(Nc2ncc(C(F)(F)F)c(-c3cn(-c4ccc(CN5CC[C@@H](O)C5)cc4Cl)cn3)n2)CC1 [Example 205]
CC1(C)CN(Cc2ccc(-n3cnc(-c4nc(NC5CCN(S(C)(=O)=O)CC5)ncc4C(F)(F)F)c3)c(Cl)c2)C1 [Example 200, 4-(1-(2-Chloro-4-((3,3-dimethyl-azetidin-1-yl)methyl)-phenyl)-1H-imidazol-4-yl)-N-(1-(methyl-sulfonyl)piperidin-4-yl)-5-(trifluoromethyl)-pyrimidin-2-amine]
Cn1cnc(-c2nc(NC3CCN(S(C)(=O)=O)CC3)ncc2C(F)(F)F)c1Cl [Example 14, 4-(5-Chloro-1-methyl-1H-imidazol-4-yl)-N-(1-(methylsulfonyl)piperidin-4-yl)-5-(trifluoromethyl)pyrimidin-2-amine]
CS(=O)(=O)N1CCC(Nc2ncc(C(F)(F)F)c(-c3cn(-c4ccc(N5CCNC(=O)C5)cc4Cl)cn3)n2)CC1 [Example 150, 4-(3-Chloro-4-(4-(2-((1-(methyl-sulfonyl)piperidin-4-yl)amino)-5-(trifluoromethyl)-pyrimidin-4-yl)-1H-imidazol-1-yl)-phenyl)piperazin-2-one]
Cn1cnc(S(=O)(=O)N2CCC(Nc3ncc(C(F)(F)F)c(-c4cn(-c5c(Cl)cccc5C#N)cn4)n3)CC2)c1 [Example 5, 3-Chloro-2-(4-(2-((1-((1-methyl-1H-imidazol-4-yl)sulfonyl)piperidin-4-yl)amino)-5-(trifluoromethyl)pyrimidin-4-yl)-1H-imidazol-1-yl)benzonitrile]
Cc1ccc(-n2cnc(-c3nc(N[C@H]4CCN(S(C)(=O)=O)C[C@H]4F)ncc3C(F)(F)F)c2)c(C(F)(F)F)n1 [Example 46, N-((3R,4S)-3-Fluoro-1-(methylsulfonyl)piperidin-4-yl)-4-(1-(6-methyl-2-(trifluoromethyl)pyridin-3-yl)-1H-imidazol-4-yl)-5-(trifluoromethyl)pyrimidin-2-amine]
CN1CCN(CCc2cccc(-n3cnc(-c4nc(NC5CCN(S(C)(=O)=O)CC5)ncc4C(F)(F)F)c3)c2Cl)CC1 [Example 464, 4-(1-(2-Chloro-3-(2-(4-methylpiperazin-1-yl)ethyl)phenyl)-1H-imidazol-4-yl)-N-(1-(methylsulfonyl)piperidin-4-yl)-5-(trifluoromethyl)pyrimidin-2-amine]
Cc1nnn(C)c1-c1ccc(-n2cnc(-c3nc(NC4CCN(S(C)(=O)=O)CC4)ncc3C(F)(F)F)c2)c(Cl)c1 [Example 120, 4-(1-(2-Chloro-4-(1,4-dimethyl-1H-1,2,3-triazol-5-yl)phenyl)-1H-imidazol-4-yl)-N-(1-(methylsulfonyl)-piperidin-4-yl)-5-(trifluoromethyl)-pyrimidin-2-amine]
CS(=O)(=O)N1CCC(Nc2ncc(C(F)(F)F)c(-c3cn(-c4ccc(Cn5nccn5)cc4Cl)cn3)n2)CC1 [Example 241, 4-(1-(4-((2H-1,2,3-Triazol-2-yl)methyl)-2-chlorophenyl)-1H-imidazol-4-yl)-N-(1-(methylsulfonyl)piperidin-4-yl)-5-(trifluoromethyl)pyrimidin-2-amine]
CS(=O)(=O)N1CCC(Nc2ncc(C(F)(F)F)c(-c3cn(-c4ccc(C#N)nc4C(F)F)cn3)n2)CC1 [Example 100, 6-(Difluoromethyl)-5-(4-(2-((1-(methyl-sulfonyl)piperidin-4-yl)amino)-5-(trifluoro-methyl)pyrimidin-4-yl)-1H-imidazol-1-yl)picolinonitrile]
Cc1nccc(-n2cc(-c3nc(N[C@H]4CCN(S(C)(=O)=O)C[C@H]4F)ncc3C(F)(F)F)nc2C)c1F [Example 313, N-((3R,4S)-3-Fluoro-1-(methylsulfonyl)piperidin-4-yl)-4-(1-(3-fluoro-2-methylpyridin-4-yl)-2-methyl-1H-imidazol-4-yl)-5-(trifluoromethyl)pyrimidin-2-amine]
CCN1CCN(Cc2ccc(-n3cc(-c4nc(N[C@H]5CCN(S(C)(=O)=O)C[C@H]5F)ncc4C(F)(F)F)nc3C)c(F)c2)CC1 [Example 445, 4-(1-(4-((4-Ethylpiperazin-1-yl)methyl)-2-fluorophenyl)-2-methyl-1H-imidazol-4-yl)-N-((3R,4S)-3-fluoro-1-(methylsulfonyl)piperidin-4-yl)-5-(trifluoromethyl)pyrimidin-2-amine]
CN1CCN(CCc2ccc(-n3cnc(-c4nc(NC5CCN(S(C)(=O)=O)CC5)ncc4C(F)(F)F)c3)c(C#N)c2)CC1 [Example 457, 5-(2-(4-Methylpiperazin-1-yl)ethyl)-2-(4-(2-((1-(methylsulfonyl)piperidin-4-yl)amino)-5-(trifluoromethyl)pyrimidin-4-yl)-1H-imidazol-1-yl)benzonitrile]
CS(=O)(=O)N1CCC(Nc2ncc(C(F)(F)F)c(-c3cn(-c4ccc(CN5CC6CCC5C6)cc4Cl)cn3)n2)CC1 (centres unmarked) [Example 180, 4-(1-(4-((2-Azabicyclo[2.2.1]heptan-2-yl)methyl)-2-chlorophenyl)-1H-imidazol-4-yl)-N-(1-(methylsulfonyl)piperidin-4-yl)-5-(trifluoromethyl)pyrimidin-2-amine]
CCNCc1cc(F)c(-n2cnc(-c3nc(N[C@@H]4CCN(S(C)(=O)=O)C[C@H]4F)ncc3C(F)(F)F)c2)c(F)c1 [Example 390, 4-(1-(4-((Ethylamino)methyl)-2,6-difluorophenyl)-1H-imidazol-4-yl)-N-((3R,4R)-3-fluoro-1-(methylsulfonyl)piperidin-4-yl)-5-(trifluoromethyl)pyrimidin-2-amine]
C[C@@H]1CN(S(C)(=O)=O)CC[C@@H]1Nc1ncc(C(F)(F)F)c(-c2cn(-c3ccc(C4CCCCN4)cc3Cl)cn2)n1 (single isomer, unassigned) [Example 277]
CS(=O)(=O)N1CCC(Nc2ncc(C(F)(F)F)c(-c3cn(-c4ccc(C#N)cc4Cl)cn3)n2)CC1 [Example 1, 3-Chloro-4-(4-(2-((1-(methylsulfonyl)piperidin-4-yl)amino)-5-(trifluoromethyl)pyrimidin-4-yl)-1H-imidazol-1-yl)benzonitrile]
CNCc1ccc(-n2cnc(-c3nc(NC4CCN(S(C)(=O)=O)CC4)ncc3C#N)c2)c(Cl)c1 [Example 226, 4-(1-(2-Chloro-4-((methylamino)-methyl)phenyl)-1H-imidazol-4-yl)-2-((1-(methylsulfonyl)-piperidin-4-yl)-amino)pyrimidine-5-carbonitrile]
CS(=O)(=O)N1CCC(Nc2ncc(C(F)(F)F)c(-c3cn(-c4ccccc4CO)cn3)n2)CC1 [Example 237, (2-(4-(2-((1-(Methylsulfonyl)piperidin-4-yl)amino)-5-(trifluoromethyl)pyrimidin-4-yl)-1H-imidazol-1-yl)phenyl)methanol]
Cc1nc(-c2nc(NC3CCN(S(C)(=O)=O)CC3)ncc2C(F)(F)F)cn1-c1ccc(CN2CC(C(C)(C)O)C2)cc1F [Example 282, 2-(1-(3-Fluoro-4-(2-methyl-4-(2-((1-(methylsulfonyl)piperidin-4-yl)amino)-5-(trifluoromethyl)pyrimidin-4-yl)-1H-imidazol-1-yl)benzyl)azetidin-3-yl)propan-2-ol]
